Data as given in US9662322B2 (TEVA PHARMACEUTICAL INDUSTRIES, LTD., priority 2014, dated 2017).

Tested on: subjects with relapsing remitting multiple sclerosis (RRMS)
Assay: ALLEGRO (MS-LAQ-301) Phase III trial: relapse endpoints
Assay type: in vivo, human
From the text: The primary endpoint of the study was the number of confirmed relapses during the double-blind treatment period, which corresponds to the annualized relapse rate (ARR—number of relapses divided by total exposure of all patients). Secondary endpoints included disability as measured by Expanded Disability Status Scale (EDSS) changes confirmed at 3 months, and cumulative number of gadolinium enhancing (GdE) and new/enlarging T2 MRI lesions. […] Eligible subjects were equally randomized 1:1 into one of the following treatment arms: • 1. […] 21, 2007 (see, page 10, line 5 to page 11, line 3). • 2. Matching placebo for laquinimod arm: one capsule is administered once daily. The primary endpoint was the number of confirmed relapses during the double-blind study period. A relapse was defined as the appearance of one or more new neurological abnormalities or the reappearance of one or more previously observed neurological abnormalities lasting for at least 48 hours and after an improved neurological state for at least 30 days. An event was counted as a relapse if the subject's symptoms were accompanied by observed objective neurological changes consistent with at least one of the following: an increase of at least 0.5 in the EDSS score; an increase of one grade in two or more of the seven functional systems; or an increase of two grades in one functional system. Standardized treatment of relapses was intravenous methylprednisolone 1 g/day for up to five consecutive days based on the treating neurologist's decision. The number of confirmed relapses (and Annualized relapse rate) during the double blind study period. The analysis of the total number of confirmed relapses during the study period is based on baseline adjusted Quasi-Likelihood (over-dispersed) Poisson Regression. Using the Poisson regression with the treatment group as a covariate, the ARR of each group was calculated for the intent-to-treat (ITT) cohort as the total number of confirmed relapses for all patients in each group divided by the total patient years in that group. In addition to the treatment group, the following covariates were included: baseline EDSS score, log of the (prior 2-year number of relapses +1) and country or geographical region.

[1] = post-hoc, vs placebo, listed as laquinimod

CCN(C(=O)c1c(O)c2c(Cl)cccc2n(C)c1=O)c1ccccc1 [Laquinimod, laquinimod]
Relapses requiring hospitalization (annualized rate) (post-hoc): 0.071
ARR 1st year, Effect (post-hoc, vs placebo): 24% reduction
ARR by median relapse duration: >34 days, Effect (post-hoc, vs placebo): 1.3% reduction
ARR by median relapse duration: ≦34 days, Effect (post-hoc, vs placebo): 37% reduction
ARR for dropouts, Effect (post-hoc, vs placebo): 26% reduction
ARR, Full recovery, Effect (post-hoc, vs placebo): 13% reduction
ARR, No recovery, Effect (post-hoc, vs placebo): 24% reduction
Relapses requiring IV steroids, Effect (post-hoc, vs placebo): 27% reduction
Relapses requiring hospitalization, Effect (post-hoc, vs placebo): 38% reduction
Unconfirmed relapses, Effect (post-hoc, vs placebo): 17% reduction
Relapses requiring IV steroids, Effect [1]: 27 % reduction
Relapses requiring hospitalization, Effect [1]: 38 % reduction
ARR, No recovery (post-hoc, recovery refers to EDSS before and after attack): 0.06
Annualized rate of relapses requiring hospitalization and/or IV steroids, Effect (vs placebo): 27% reduction
Relapse-free during study, increase in odds to be relapse free (vs placebo): 55% increase odds to
Relapse-free during study, increase in odds to be relapse free (vs placebo, listed as laquinimod): 55%
